Legend:
hypoxic HeLa cells = test: Detection of hypoxia with hypoxia markers using fluorescence microscopy; type: cell-based, human; details: 5 μM, 3.5 h, chemical induction of hypoxia (CoCl2, DFO, DMOG) or anoxic treatment, FITC filter
Procedure: The human cervical adenocarcinoma epithelial cell line HeLa, U-2 OS human bone osteosarcoma cell line and hamster ovary CHO K1 cell line were obtained from ATTC. HeLa cells were routinely cultured in Eagle's Minimum Essential Medium with low glucose (ATCC), supplemented with 10% fetal bovine serum (ATCC) and 100 U/ml penicillin, 100 μg/ml streptomycin (Sigma-Aldrich, St. Louis, Mo.). U-2 OS cells were routinely cultured in McCoy's 5a Modified Medium (ATCC), supplemented with 10% fetal bovine serum heat (ATCC) and 100 U/ml penicillin+100 μg/ml streptomycin (Sigma-Aldrich). […]
The day before the experiment, the cells were seeded on 4-well microscope slides (Cel-Line™ Brand, Portsmouth, N.H.) at a density 1×10^4 cells/well (2×10^4 cells/cm^2). […] Post-treatment, the slides were washed twice with PBS, coverslipped and visualized using an Olympus BX-51 fluorescence microscope (FITC filter set, 490ex/525em).
In parallel, the hypoxia cellular state was detected using the hypoxia detecting reagent pimonidazole (Varia et al., 1998; Young, 1977). […] Slides were stained with a 1:100 dilution of FITC-MAb1 against pimonidazole (HP-1 kit from Hypoxyprobe) for 45 min at 4° C., washed twice with PBS, coverslipped and visualized using an Olympus BX-51 fluorescence microscope equipped with an FITC filter set (490ex/525em). […]

HeLa cells = test: Combined detection of hypoxia and redox status in live cells by fluorescent microscopy; type: cell-based, human; details: for superoxide production (superoxide detection reagent staining) in treated HeLa cells: 0.2 mM CoCl2, 0.2 mM DFO or 1 mM DMOG, 3.5 h
Procedure: HeLa and U-2 OS cells were cultured as described in Example 7. Stock solutions of CD-1 and CD-5 and various hypoxia inducers were prepared and stored as described in Examples 7 and 8. Additionally, 5 mM stock solutions (5000×) of 2′,7′-dichloro-fluorescein diacetate (DCFDA, an indicator of global ROS generation) and dihydroethidium (DHE, specific indicator of superoxide generation) were made in anhydrous DMF. DMSO was avoided, since this solvent is a hydroxyl radical scavenger and its presence may affect ROS/RNS production in cellular systems. The following stocks of ROS inducers were prepared in DMF: 10 mM pyocyanin (general ROS generating compound, 100×), 20 mM antimycin A (general ROS inducer, 400×), 50 mM pyrogallol (a superoxide radical generator, 1000×), 1 mM t-butyl hydroperoxide (TBHP, peroxide radical inducer, 10,000×). ROS probes and inducers were aliquoted and stored at −80° C.
The day before the experiment, the cells were seeded on 4-well microscope slides (Cel-Line™ Brand, Portsmouth, N.H.) at a density 1×10^4 cells/well (2×10^4 cells/cm^2). On the day of the experiment, the cells were preloaded with both hypoxia probe (5 μM final concentration in cell culture medium) and ROS detecting reagent with suitable spectral characteristics. Two ROS-detecting probes, DCFDA and DHE, were used in a pilot experiment in conjunction with hypoxia self-immolative probes. The hydrolyzed product of DCFDA, DCFH, is considered to be a general indicator of ROS, reacting with H2O2 (in the presence of peroxidases), ONOO^−, lipid hydroperoxides, and hydroxyl radicals. The oxidized product can be detected by strong fluorescence emission at around 525 nm when excited at around 488 nm. Because H2O2 is a secondary product of O2.^−, DCFH fluorescence has been used to implicate O2.^− production. The direct reaction of DHE with O2.^− yields a very specific fluorescent product, requiring no conversion to H2O2. The product of the DHE reaction with O2.^− fluoresces strongly at around 600 nm when excited at 500-530 nm.
Tested pairs of the probes were as follows: CD-5 with DCFDA or DHE, and CD-1 with DHE. A hypoxic state was induced in the cells as described in Example 7. Control slides were singly-stained with hypoxia or ROS-detecting probes only. Additional slides were treated with different general and specific ROS inducers and stained with ROS-detecting probes to control ROS staining. Post-treatment, the slides were washed twice with PBS, coverslipped and visualized using an Olympus BX-51 fluorescence microscope and a DAPI filter set (350 ex/470em) for CD-5, an FITC filter set (490ex/525em) for CD-1 or for total ROS detection reagent, and an orange filter set (550ex/620em) for HE.

Jurkat cells [1] = test: Detection of hypoxia using flow cytometry; type: cell-based, human; details: 5 μM CD-1, 1 μM CD-6, versus vehicle-treated loaded cells
Procedure: HeLa and U-2 OS cells were cultured as described in Example 7. Human Jurkat T-cell leukemia cells (the A3 subclone) was obtained from ATCC and routinely cultured in RPMI-1640 medium (ATCC) supplemented with 10% fetal bovine serum (ATCC) and 100 U/ml penicillin+100 μg/ml streptomycin (Sigma-Aldrich). Cell cultures were maintained in an incubator at 37° C., with 5% CO2 atmosphere. CD-1, CD-4 and CD-6 self-immolative hypoxia probes were prepared as described in Example 8. All hypoxia inducers stocks were prepared as described in Example 7.
The day before the experiment, HeLa and U-2 OS cells were seeded in 6-well tissue culture plates at a density 5×10^5 cells/well. […] Post-treatment, the adherent cells (HeLa and U-2 OS) were collected by trypsinization, re-suspended in 0.5 mL of fresh PBS and analyzed using flow cytometry. Jurkat cells were analyzed without washing.
Flow cytometry experiments were performed using a FACS Calibur benchtop flow cytometer (BD Biosciences) equipped with a blue (488 nm) laser, and the fluorescence was recorded in the FITC (530/30 filter), PE (585/42 filter) and PerCP (670 LP filter) channels. Hypoxic cells were detected by detecting increases in fluorescence. The degree of hypoxia (Khyp) can be quantified by using Kolmogorov-Smirnov statistics (Young, 1977) or the following formula: Khyp=(MFIhyp−MFIcon)/MFIhyp, […]

Jurkat cells [2] = test: Combined detection of hypoxia and superoxide in live cells by flow cytometry; type: cell-based, human
Procedure: HeLa, U-2 OS, and Jurkat cell lines were cultured as described in Examples 7 and 9. Stock solutions of the probes and inhibitors were prepared as described in Examples 7 and 10.
The day before the experiment, HeLa and U-2 OS cells were seeded in 6-well tissue culture plates at a density of 5×10^5 cells/well. Jurkat cells were collected in logarithmic phase of growth and aliquoted at a density of 5×10^5 cells/sample. On the day of the experiment, the cells were preloaded with either hypoxia or ROS-detecting probes only or with the combination of hypoxia and ROS-detecting probes with compatible spectral characteristics. Samples stained with single hypoxia probes or with two ROS-detecting probes were made to validate data obtained with the combination of hypoxia and redox probes. The probes used in the experiment and their final concentrations in cell culture medium were as follows: CD-1(5 μM) and CD-6 (1 μM), DCFDA, peroxide/peroxynitrite/hydroxyl detection probe and HE, specific superoxide detection reagent (1 μM for both redox probes). Hypoxia was induced in the cells as described in Example 7. Additionally, cells were treated with different general and specific ROS inducers and stained with ROS-detecting probes to control ROS production and staining. Post-treatment, the adherent cells (HeLa and U-2 OS) were collected by trypsinization, re-suspended in 0.5 mL of fresh PBS and analyzed using flow cytometry. Jurkat cells were analyzed without washing. Flow cytometry experiments were performed using an FACS Calibur benchtop flow cytometer (BD Biosciences) equipped with a blue (488 nm) laser, and the fluorescence was recorded in the FITC (530/30 filter), PE (585/42 filter) and PerCP (670 LP filter) channels. Data were collected uncompensated, also compensation corrections were performed using unstained cells, and cells stained with each single dye separately (CD-1, CD-6, DCFDA or HE). To quantify data, quadrant gates were set using untreated samples.

[3] = Chemical assay: reduction of probe by sodium hydrosulfite, fluorescence; details: PBS pH 7.4, room temperature, over a 60 minute period
Procedure: A solution of probe CD-6 in DMSO (0.1-1.0 μl) was added to 90 μl of PBS buffer (10 mM, pH 7.4). After mixing, 10 μl of 100 mM aqueous sodium hydrosulfite was added. The reaction mixture was incubated at room temperature for amount of time ranging from 1 minute to 6 hours. As a control, 10 μl of water instead of sodium hydrosulfite was used.

[4] = test system: bacterial nitroreductases; details: cited from earlier work
[5] = test system: mammalian single-electron reductases; details: cited from earlier work

SMILES: O=C(Nc1ccc2c(c1)Oc1cc(NC(=O)N3CCOCC3)ccc1C21OC(=O)c2ccccc21)OCc1ccccc1 (centres unmarked) [CD-3]
- fluorescence signal in hypoxic HeLa cells (hypoxic HeLa cells): did not yield any fluorescent signal

SMILES: O=C(Nc1ccc2c(C(F)(F)F)cc(=O)oc2c1)OCc1ccc([N+](=O)[O-])cc1 [CD-5]
- hypoxia probe fluorescent signal in hypoxic HeLa cells, multiplexed with ROS dyes (HeLa cells; 5 μM, all four hypoxic samples (anoxia, CoCl2, DFO, DMOG)): bright fluorescent signal

SMILES: O=C(Nc1ccc2c(c1)Oc1c(cc3c4c1CCCN4CCC3)C21OC(=O)c2ccccc21)OCc1ccc([N+](=O)[O-])cc1 (centres unmarked) [CD-6]
- fluorescence in Jurkat cells treated with chemical hypoxia inducers or subjected to anoxia (Jurkat cells [1]): fluorescence increase
- detection of hypoxic cell populations (Jurkat cells [2]; CD-6 1 μM with DCFDA or HE dyes or alone, flow cytometry): able to detect hypoxic cell populations
- fluorescence after combining with sodium hydrosulfite [3]: increasing fluorescence

SMILES: O=c1c(Cl)c2oc3cc([N+](=O)[O-])ccc3nc-2c2ccccc12 [CNOB, 6-Chloro-9-nitro-5-oxo-5H-benzo[a]phenoxazine]
- substrate for bacterial nitroreductases [4]: good substrate
- substrate for mammalian nitroreductases [5]: apparently not a substrate

SMILES: [Cl][Co][Cl] [CoCl2, cobalt chloride]
- superoxide production: population of orange positive cells (Jurkat cells [2]; Jurkat cells, compared to the untreated cells): about 20%
- superoxide production (superoxide detection reagent staining) in treated HeLa cells (HeLa cells): only moderate staining

SMILES: CC(=O)N(O)CCCCCNC(=O)CCC(=O)N(O)CCCCCNC(=O)CCC(=O)N(O)CCCCCN [DFO, desferrioxamine]
- superoxide production (superoxide detection reagent staining) in treated HeLa cells (HeLa cells): Abundant superoxide production

SMILES: COC(=O)CNC(=O)C(=O)OC [DMOG, dimethyloxalylglycine, N-[Methoxyoxoacetyl]glycine methyl ester]
- superoxide production (superoxide detection reagent staining) in treated HeLa cells (HeLa cells): Abundant superoxide production
- peroxides/peroxynitrite formation in treated HeLa cells (HeLa cells; DCFDA staining): detected in DMOG-treated cells only

SMILES: Cn1c2cccc(=O)c-2nc2ccccc21 [Pyocyanin, pyocyanin]
- hypoxia state: positive green cells (Jurkat cells [2]; Jurkat cells stained with CD-1, pyocyanin-treated): about 10%
- superoxide production in treated Jurkat cells (Jurkat cells [2]; positive control for ROS production): high superoxide production

From patent US8828678B2, “Self-immolative probes for enzyme activity detection” (Enzo Life Sciences, Inc., priority 2010, dated 2014)
